{"source": "paper PMC11123841", "about": "“Discovery and Synthesis of Hydroxy-L-Proline Blockers of the Neutral Amino Acid Transporters SLC1A4 (ASCT1) and SLC1A5 (ASCT2)” (Molecules, 2024)", "key": {"[1]": {"target": "T1, SLC1A4 (Homo sapiens, UniProt P43007)", "T1 construct": "expressed in transfected cells; host or cells: Xenopus laevis oocytes (cRNA injection)", "T1 sequence (P43007 1-532)": "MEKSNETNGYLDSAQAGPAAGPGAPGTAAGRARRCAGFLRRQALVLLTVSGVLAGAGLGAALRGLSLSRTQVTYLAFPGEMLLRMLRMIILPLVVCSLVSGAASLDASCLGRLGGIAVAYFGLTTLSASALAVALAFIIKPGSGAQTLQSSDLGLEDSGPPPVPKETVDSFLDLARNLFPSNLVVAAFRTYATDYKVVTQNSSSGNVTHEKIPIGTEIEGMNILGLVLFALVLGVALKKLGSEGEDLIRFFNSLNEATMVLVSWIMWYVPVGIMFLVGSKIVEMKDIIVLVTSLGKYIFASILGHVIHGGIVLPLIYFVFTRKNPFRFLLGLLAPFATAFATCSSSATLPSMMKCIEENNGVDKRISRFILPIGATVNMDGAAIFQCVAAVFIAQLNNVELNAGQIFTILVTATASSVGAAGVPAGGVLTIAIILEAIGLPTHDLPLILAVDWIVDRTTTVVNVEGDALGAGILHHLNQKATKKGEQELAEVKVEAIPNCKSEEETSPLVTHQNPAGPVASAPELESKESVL", "assay": "TEVC block of anion leak conductance in oocytes", "assay_type": "cell-based", "conditions": "SLC1A4; compared with ligands of refs 43, 65", "text": "The currents induced by substrates and blocked by hydroxyproline analogs shared a reversal potential shown in the current/voltage relationship consistent with the conductance originating from the same ion pore (Figure 3, inset). […] The observed dose–response relationships are independent of competing substrates, and thus provide a direct measure of the equilibrium inhibition constant (Ki). Each synthetic hydroxyproline analog was functionally assessed for its capacity to inhibit SLC1A4 and SLC1A5 leak currents with affinities reported in Table 1 as determined or approximated Ki.\n(§1) Two-electrode voltage clamp (TEVC) transporter currents were recorded with a GeneClamp 500 amplifier and Digidata 1320A analog–digital interface (Molecular Devices, San Jose, CA, USA). Electrodes (0.2–1.0 MΩ) were filled with 3M KCl and the recording chamber was grounded with an agar bridge. Data were acquired with Axograph (v1.7.6) and LabChart (v7) and analyzed with Kaleidagraph software (v4.1) (Synergy, Reading, PA, USA). Uncoupled anion currents associated with the transport of substrate and block of SLC1A4 or SLC1A5 mediated leak conductance were recorded in the presence of Ringer with 50% substitution of NaCl by NaSCN to amplify the non-transported anion conductance.\nFigure 3 AHPCs block a leak current in SLC1A4 and SLC1A5. […] Inset (A): The current and voltage relationship for SLC1A4 currents activated by Ala or blocked by 14b are determined by subtracting voltage jumps in buffer."}, "[2]": {"target": "T1, SLC1A4", "assay": "[3H]L-alanine uptake block in oocytes", "assay_type": "cell-based", "description": "Uptake was halted by washing 3 times with 4 °C ND96 buffer. Oocytes were then lysed in 0.1% Triton X-100, and radioactivity was counted via liquid scintillation. Dose response curves were generated by fitting fractional inhibition (I) to the expression I = Imax × [inhibitor]/([inhibitor] + IC50)."}, "[3]": {"target": "T1, SLC1A4", "assay": "Schild analysis of L-alanine dose responses", "assay_type": "cell-based", "description": "We further characterized the highest affinity blocker discovered from our AHPC series, biphenyl-O-hydroxy-proline (BPOHP, 14e). […] A respective right shift in the substrate dose response was apparent with increasing concentrations of BPOHP (Figure 4C).\nas §1\nFigure 4 BPOHP 14e characterization as a competitive, non-transportable inhibitor. […] (D) A Schild plot showing a linear relationship between [L-ala] dose ratio and four different concentrations of BPOHP, consistent with competitive inhibition."}, "[4]": {"target": "T1, SLC1A4", "assay": "[3H]D-serine uptake in oocytes", "assay_type": "cell-based", "conditions": "[3H]D-serine 100 nM, 10 µM BPOHP", "description": "page 6: vi Figure SM-3A. […] with no effect on SL[…] neutral amino acid transporters SLC38A1(ATA1), SLC38A2 (ATA2), and SLC38A4 (ATA3). SM-3B. […] by application of 10μM BPOHP. Figure SM-4. Tosic acid approach to compound 12c. (i) Tosylic acid 0.1M in THF 60◦C. (ii) […] S.Figure 3 A. […] SLC38A1(ATA1), SLC38A2 (ATA2), and SLC38A4 (ATA3). B. […] SLC7A10+SLC3A2 (asc1+4F2). […]"}, "[5]": {"tested_on": "glutamate transporters (SLC1A 1–3)", "assay": "Inhibition of the glutamate transporters, general statement", "assay_type": "cell-based, human", "description": "BPOHP activity was evaluated against the glutamate transporters paralogs within the SLC1A gene family (SLC1A 1–3) as well as at neutral amino acid transporters that share common ligand substrates with the SLC1 family including SLC38A1,2, and 4 (ATA1, ATA2, ATA3) and heteromeric transporters SLC7A10+SLC3A2 (asc-1/4f2). […] Finally, radiolabeled [^3H]D-serine uptake was used to assess the electroneutral SLC7A10+SLC3A2 transporter, in which 10 µM BPOHP had no effect (Figure S3).\nHigh resolution structural models for SLC1A4 and SLC1A5 have been developed. These models reinforce our SLC1A5 homology model derived from the archaeal glutamate transporter. […] While preparing this manuscript, inhibitors of SLC1A5 of a similar design to our alkoxy-hydroxyprolines were reported with ligand-bound high-resolution EM models. These reported EM models help validate our docking solutions with respect to mode of binding within our homology model. We emphasize that our discoveries and modeling of these hydroxyproline/AHPC inhibitors targeting SLC1A4 and SLC1A5, as documented in the public domain [66, 67], predates these reports and is yet to be properly referenced/cited. […] This nonselective SLC1 inhibition, observed with BPOHP, may be attributed to entropic contributions resulting from the biphenyl moiety occupying an adjacent hydrophobic pocket."}}, "data": [{"smiles": "O=C(O)[C@H]1NC[C@@H](OCc2ccc(-c3ccccc3)cc2)[C@@H]1O", "note": "[14e]", "values": [{"measurement": "fold improvement in affinity over ligands previously reported", "setting": "[1]", "value": "7–25 fold"}, {"measurement": "IC50", "setting": "[2]", "value": 128, "unit": "nM"}, {"measurement": "Kb", "setting": "[3]", "value": 120, "unit": "nM"}, {"measurement": "effect on [3H]D-serine uptake", "setting": "[4]", "value": "blocked"}, {"measurement": "inhibition of the glutamate transporters", "setting": "[5]", "value": "low micromolar range"}]}]}
